From patent US20190329063A1, “METHOD FOR MODIFYING THE T[…] OF DRUGS” (priority 2016, published 2019)

How the values were obtained:
ADHD patients = test: Real-time fMRI neurofeedback of right-IFG after Ritalin IR with CPTi, CPT and Strooplike tasks; type: in vivo, human; conditions: 0.1-0.2 mg/kg Ritalin IR; right-IFG Up vs Down regulation; 24 ADHD patients
Experimental: According to some exemplary embodiments, 24 ADHD patients participated in a three session within-subject experimental design.
In some embodiments, taking the known pharmacokinetic properties of MPH into account, the neurofeedback paradigm was scheduled to begin towards the estimated peak concentration of MPH in brain blood plasma (45 min), and last for 40 minutes, well into the drug's plateau of concentration phase, thus assuming a maximum effect of drug delivery and absorption to the rIFG and related brain regions. Additionally, cognitive performance was evaluated before administration and following the NF task via three behavioral tasks (CPTi, CPT and Strooplike, measuring response inhibition, sustained attention and executive attention, respectively; Shalev-Mevorach et al. 2005; 2011).

[1] = after administration of Ritalin IR; cited from earlier work
[2] = tested on: subjects medicated with MPH; test: Conjunctive continuous performance task (CPT) after half dose MPH with cognitive induction or music control; type: in vivo, human; conditions: half dose MPH PO
Source text: Reference is now made to FIGS. 7A-7B, depicting validation experiments for testing whether FPC improves attention functions of subjects medicated with MPH, according to some embodiments of the invention. In some embodiments, the experiment includes three sessions. In some embodiments, in the first session 702, the subjects performed a conjunctive continuous performance task (CPT, Shalev et al., 2011). In some embodiments, this test yields measures of sustained attention, which are generalized across different sensory modalities.
According to some embodiments, in the second and the third sessions 706, the subjects took half of their prescribed drug 708 dose by per os (PO) administration. In some embodiments, in the first epoch they went through either a cognitive induction condition 714 during which they performed the NeuroTrax tasks or a control condition 712 during which they listened to a piece of their favorite music. In some embodiments, these 30 min conditions were followed by a 20-minutes rest epoch 716, for example to allow for the testing of an enduring effect of the FPC. […]
According to some exemplary embodiments, FPC effect was measured for the sustained attention measures of average 722 and standard deviation 724 response time, which show high reliability and validity (Shalev et al., 2011). […]

SMILES: COC(=O)C(c1ccccc1)C1CCCCN1 (stereo not shown) [MPH, Methylphenidate]
- effects on sustained attention (CPT task) and response inhibition (CPTi task) following the up regulation condition (ADHD patients): substantially larger effects
- estimated peak concentration of MPH in brain blood plasma (time) [1]: 45 min
- improvement of sustained attention measures, cognitive induction task relative to control task (music) ([2]; two subjects): higher
- sustained attention measures of average and standard deviation response time (CPT) ([2]; two subjects (males)): improved
